# Entries after “also recorded” stand apart in the source; their conditions may differ. Counter-ions that a name gives are not always drawn. Marks after values point to notes of the source that are not given here. Square brackets hold non-standard residues; d marks the D form. Peptide text beside a SMILES is read from it. pY = N[C@@H](Cc1ccc(OP(=O)(O)O)cc1)C(=O)O
# Columns and labels:
# plasma DP IV activity = target: T1, plasma DP IV activity (Rattus norvegicus, UniProt P14740); experiment: DP IV inhibiting activity after intravasal and oral administration to Wistar rats; format: in vivo; conditions: 100 mg/kg; for in vivo DP IV-inhibition at tmax, i.v.: intra-vasal (intra-arterial); for in vivo DP IV-inhibition at tmax, p.o.: oral
# T1 construct: from tissue; host or cells: plasma of Wistar rats
# T1 sequence (P14740 37-767 limits assumed): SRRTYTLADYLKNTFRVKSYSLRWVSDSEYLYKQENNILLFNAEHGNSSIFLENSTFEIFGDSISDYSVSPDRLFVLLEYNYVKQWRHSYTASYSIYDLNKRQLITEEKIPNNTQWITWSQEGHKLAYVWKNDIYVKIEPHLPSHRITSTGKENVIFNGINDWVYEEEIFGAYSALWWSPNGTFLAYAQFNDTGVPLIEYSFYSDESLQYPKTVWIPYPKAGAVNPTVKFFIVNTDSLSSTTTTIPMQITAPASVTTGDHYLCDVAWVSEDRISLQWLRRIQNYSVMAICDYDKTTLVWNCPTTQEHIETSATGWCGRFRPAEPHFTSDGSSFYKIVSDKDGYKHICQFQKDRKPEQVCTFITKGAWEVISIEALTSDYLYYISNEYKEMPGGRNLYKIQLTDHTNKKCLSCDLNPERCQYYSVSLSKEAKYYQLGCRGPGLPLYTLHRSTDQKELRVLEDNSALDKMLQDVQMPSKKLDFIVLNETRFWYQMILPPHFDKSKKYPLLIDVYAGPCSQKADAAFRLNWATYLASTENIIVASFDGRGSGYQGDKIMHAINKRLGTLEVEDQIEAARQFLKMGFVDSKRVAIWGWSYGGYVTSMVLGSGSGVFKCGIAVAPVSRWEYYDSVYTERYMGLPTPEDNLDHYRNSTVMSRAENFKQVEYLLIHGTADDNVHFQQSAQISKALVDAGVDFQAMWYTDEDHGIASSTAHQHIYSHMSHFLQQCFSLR
# Experimental: Male Wistar rats (Shoe: Wist(Sho)) with a body weight ranging between 250 and 350 g were purchased from Tierzucht Schönwalde (Schönwalde, Germany).
# Animals were single-caged under conventional conditions with controlled temperature (22±2° C.) on a 12/12 hours light/dark cycle (light on at 06:00 AM). Standard pelleted chow (ssniff® Soest, Germany) and tap water acidified with HCl were allowed ad libitum.
# After ≧one week of adaptation at the housing conditions, catheters were implanted into the carotid artery of Wistar rats under general anaesthesia (i.p. injection of 0.25 ml/kg b.w. Rompun® [2%], BayerVital, Germany and 0.5 ml/kg b.w. Ketamin 10, Atarost GmbH & Co., Twistringen, Germany). The animals were allowed to recover for one week. The catheters were flushed with heparin-saline (100 IU/ml) three times per week. In case of catheter dysfunction, a second catheter was inserted into the contra-lateral carotid artery of the respective rat. After one week of recovery from surgery, this animal was reintegrated into the study. In case of dysfunction of the second catheter, the animal was withdrawn from the study. A new animal was recruited and the experiments were continued in the planned sequence, beginning at least 7 days after catheter implantation.
# After overnight fasting, 100 μl samples of heparinised arterial blood were collected at −30, −5, and 0 min. […] In the case of oral administration, an additional volume of 1 ml saline was injected into the arterial catheter. In the case of intra-arterial administration, the catheter was immediately flushed with 30 μl saline and an additional 1 ml of saline was given orally via the feeding tube.
# All blood samples were collected into ice cooled Eppendorf tubes (Eppendorf-Netheler-Hinz, Hamburg, Germany) filled with 10 μl 1 M sodium citrate buffer (pH 3.0) for plasma DP IV activity measurement. Eppendorf tubes were centrifuged immediately (12000 rpm for 2 min, Hettich Zentrifuge EBA 12, Tuttlingen; Germany): The plasma fractions were stored on ice until analysis or were frozen at −20° C. until analysis. All plasma samples were labelled with the following data: • Code number • Animal Number • Date of sampling • Time of sampling Analytical Methods
# The assay mixture for determination of plasma DP IV activity consisted of 80 μl reagent and 20 μl plasma sample. […] The DP IV activity was expressed in mU/ml.
# All parameters were analysed in a descriptive manner including mean and SD.
# porcine DP II = target: T2, porcine DP II (Sus scrofa, UniProt A0A5G2QK18); experiment: Inhibition of DP IV-like enzymes, dipeptidyl peptidase II; format: biochemical
# T2 construct: The enzyme used was purified from porcine kidney; from tissue; host or cells: porcine kidney
# T2 sequence (A0A5G2QK18 28-502): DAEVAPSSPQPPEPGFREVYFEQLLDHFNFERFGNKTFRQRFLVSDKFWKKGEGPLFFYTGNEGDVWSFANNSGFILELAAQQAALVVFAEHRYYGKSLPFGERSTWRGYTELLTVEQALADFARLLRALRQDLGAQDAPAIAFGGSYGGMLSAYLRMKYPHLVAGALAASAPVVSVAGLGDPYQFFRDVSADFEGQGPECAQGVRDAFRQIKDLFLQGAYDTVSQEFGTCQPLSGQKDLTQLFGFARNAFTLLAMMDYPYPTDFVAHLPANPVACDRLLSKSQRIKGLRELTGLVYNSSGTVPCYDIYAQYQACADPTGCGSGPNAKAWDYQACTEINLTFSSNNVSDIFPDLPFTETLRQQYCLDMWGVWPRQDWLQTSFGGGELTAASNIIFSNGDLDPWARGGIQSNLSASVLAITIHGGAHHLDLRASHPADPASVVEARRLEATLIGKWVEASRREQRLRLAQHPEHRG
# Experimental: DP II (3.4.14.2) releases N-terminal dipeptides from oligopeptides if the N-terminus is not protonated (McDonald, J. K., Ellis, S. & Reilly, T. J., 1966, J. Biol. Chem., 241, 1494-1501). Pro and Ala in P1-position are preferred residues. The enzyme activity is described as DP IV-like activity, but DP II has an acidic pH-optimum. The enzyme used was purified from porcine kidney.
# 100 μl glutaminylpyrrolidine or glutaminylthazolidine in an concentration range of 1*10^−4 M-5*10^−8M were admixed with 100 μl μl buffer solution (40 mM HEPES, pH7.6, 0.015% Brij, 1 mM DTT), 50 μl lysylalanylaminomethylcoumarine solution (5 mM) and 20 μl porcine DP II (250fold diluted in buffer solution). Fluorescence measurement was performed at 30° C. and λexiatation=380 nm, λemission=465 nm for 25 min using a plate reader (HTS7000plus, Applied Biosystems, Weiterstadt, Germany).
# [1] = target: T3, Dipeptidyl Peptidase I (DP I, Cathepsin C) (Rattus norvegicus, UniProt P80067); experiment: Cross reacting enzymes: dipeptidyl peptidase I; format: biochemical; conditions: concentration range 1*10^−5M-1*10^−7M
# T3 construct: purchased Qiagen GmbH, Hilden, Germany
# T3 sequence (P80067 25-462): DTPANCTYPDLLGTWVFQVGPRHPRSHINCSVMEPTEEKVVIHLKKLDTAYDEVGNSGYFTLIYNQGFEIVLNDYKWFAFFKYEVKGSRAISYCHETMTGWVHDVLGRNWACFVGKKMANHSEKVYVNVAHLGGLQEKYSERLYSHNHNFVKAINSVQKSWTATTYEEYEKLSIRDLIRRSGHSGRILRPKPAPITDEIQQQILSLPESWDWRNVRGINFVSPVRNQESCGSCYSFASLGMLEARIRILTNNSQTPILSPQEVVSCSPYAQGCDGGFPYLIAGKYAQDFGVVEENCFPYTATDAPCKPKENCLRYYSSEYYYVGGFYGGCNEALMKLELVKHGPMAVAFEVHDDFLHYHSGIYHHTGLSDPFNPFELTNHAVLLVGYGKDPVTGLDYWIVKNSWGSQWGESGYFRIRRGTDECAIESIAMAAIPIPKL
# Experimental: DP I or cathepsin C is a lysosomal cysteine protease which cleaves off dipeptides from the N-terminus of their substrates (Gutman, H. R. & Fruton, J. S., 1948, J. Biol. Chem., 174, 851-858). It is classified as a cysteine protease. The enzyme used was purchased from Qiagen (Qiagen GmbH, Hilden, Germany). In order to get a fully active enzyme, the enzyme was diluted 1000 fold in MES buffer pH5,6 (40 mM MES, 4 mM DTT, 4 mM KCl, 2 mM EDTA, 0.015% Brij) and pre-incubated for 30 min at 30° C.
# 50 μl glutaminylpyrrolidine or glutaminylthazolidine in a concentration range of 1*10^−5M-1*10^−7M were admixed with 110 μl buffer-enzyme-mixture. The assay mixture was pre-incubated at 30° C. for 15 min. After pre-incubation, 100 μl, histidylseryl-β-nitroaniline (2*10^−5M) was added and measurement of yellow color development due to β-nitroaniline release was performed at 30° C. and […] for 10 min., using a plate reader (HTS7000 plus, Applied Biosystems, Weiterstadt, Germany).
# The IC 50-values were calculated using Graphit 4.0.15 (Erithacus Software, Ltd., UK).
# purified porcine DP IV = purified porcine DP IV (Sus scrofa, UniProt P22411); experiment: Determination of IC50 values, DP IV; format: biochemical; conditions: Gly-Pro-pNA 0.4 mM, HEPES pH 7.6, 30° C.
# purified porcine DP IV, sequence (P22411 whole entry): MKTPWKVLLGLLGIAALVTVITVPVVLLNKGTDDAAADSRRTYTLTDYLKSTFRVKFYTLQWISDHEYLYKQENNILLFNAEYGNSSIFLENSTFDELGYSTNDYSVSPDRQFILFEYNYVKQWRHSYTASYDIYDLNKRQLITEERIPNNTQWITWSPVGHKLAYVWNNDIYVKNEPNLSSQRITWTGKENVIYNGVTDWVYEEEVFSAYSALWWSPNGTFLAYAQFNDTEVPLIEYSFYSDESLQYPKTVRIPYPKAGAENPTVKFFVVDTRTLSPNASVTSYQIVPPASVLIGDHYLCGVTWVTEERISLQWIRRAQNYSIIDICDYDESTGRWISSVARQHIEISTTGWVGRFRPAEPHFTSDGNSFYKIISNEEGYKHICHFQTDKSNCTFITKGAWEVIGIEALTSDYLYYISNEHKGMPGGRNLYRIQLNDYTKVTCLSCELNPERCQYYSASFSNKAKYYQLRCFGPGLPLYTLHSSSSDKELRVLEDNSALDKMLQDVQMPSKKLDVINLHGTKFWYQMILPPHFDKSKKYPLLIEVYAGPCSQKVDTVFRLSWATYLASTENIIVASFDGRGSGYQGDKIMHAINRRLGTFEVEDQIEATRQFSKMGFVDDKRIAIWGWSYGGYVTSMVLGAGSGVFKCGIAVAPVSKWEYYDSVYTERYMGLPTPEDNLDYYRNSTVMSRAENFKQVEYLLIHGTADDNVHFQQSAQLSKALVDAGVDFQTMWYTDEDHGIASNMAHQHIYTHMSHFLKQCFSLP
# Experimental: 100 μl inhibitor stock solution were mixed with 100 μl buffer (HEPES pH7.6) and 50 μl substrate (Gly-Pro-pNA, final concentration 0.4 mM) and preincubated at 30° C. Reaction was started by addition of 20 μl purified porcine DP IV. Formation of the product pNA was measured at 405 nm over 10 min using the HTS 7000Plus plate reader (Perkin Elmer) and slopes were calculated. The final inhibitor concentrations ranged between 1 mM and 30 nM. For calculation of IC50 GraFit 4.0.13 (Erithacus Software) was used.
# EAE = conditions: chronic treatment, female Lewis rats; cited from earlier work
# [2] = tested on: experimental autoimmune encephalomyelitis (EAE); experiment: EAE experiment 2: i.p. treatment day 5-15, male Lewis rats; format: in vivo; design: key to Average score / Maximal score: 0.5 = partial tail tone loss … 4 = quadriplegia, 5 = death; Onset of disease (1st day of score > 1): unit not given here; conditions: for Average score / Maximal score / Onset of disease (1st day of score > 1) / Sum of scores: days 5-15 p.i.
# Experimental: (§1) For the second experiment, male inbred Lewis rats (n=50) with a mean body weight of 230±12 g, were obtained from Charles River (Bad Sulzfeld, Germany). Animals were randomly assigned to the different experimental conditions. Rats were housed four per cage under a 12:12 h light: dark cycle (lights off at 18:00 h) and at constant temperature (24° C.) in a specific pathogen free air-conditioned colony room with food (Altromin lab chow pellets) and tap water available ad lib. The animals underwent routine cage maintenance once a week.
# (§2) Guinea pig MBP (50 μg/rat) was emulsified in Complete Freund's adjuvant (CFA) containing heat-killed Mycobacterium tuberculosis (H37Ra; 225 μg/rat) and injected s.c. at the base of the tail in a total volume of 100 μl (12). CFA (Sigma) and heat-killed Mycobacterium tuberculosis (H37Ra) were purchased from Life Technologies, Inc. (Rockville, Md.). Clinical disease was scored on the following scale: 0.5: partial loss of tail tone; 1.0: complete tail atony; 2.0: hind limb weakness; 2.5: hind limb paralysis of one leg; 3.0: hind limb paralysis of both legs; 3.5: limb paralysis of three legs; 4.0: quadriplegia and moribund status; 5.0: death due to EAE. Experiments were terminated on day 21 post immunization (p.i.).
# The incidence of adjuvant-induced arthritis was remarkably low (n=0 in the 2nd experiment) using the base of the tail as an immunization site. In the second experiment no signs of arthritis were found. […] This time, these animals remained in the analysis, because this finding is probably due to the treatment. In this experiment a phenomenon called “disease dissociation” was observed. In several animals there was a clear tonus of the tail associated with a clear weakness of the hind limbs. The animals were scored maximal, i.e. 2.
# (§3) Comparison over time between the clinical course of EAE of the different treatment conditions was conducted using a two factorial analysis of variance (ANOVA) for repeated measures. Sums of clinical scores of EAE, onset and peak of disease were calculated on the basis of the clinical scores per day and analyzed using a one factorial ANOVA and post hoc Fisher's PLSD tests, if appropriate. All data are presented as means±SEM.
# [3] = tested on: experimental autoimmune encephalomyelitis (EAE); experiment: EAE experiment 1: i.p. treatment day 1-15, female Lewis rats; format: in vivo
# Experimental: as §1, with “first experiment female” for “second experiment, male”, “190±6” for “230±12”, “week. All research and animal care procedures were approved by the government of Lower Saxony in Hannover, Germany, and performed in compliance with international animal welfare standards.” for “week.”
# as §2, with “15” for “21”, “when most of the animals were about 48 h after maximal clinical score. The incidence of adjuvant-induced arthritis was remarkably low (n=0 in the 1st experiment) using the base of the tail as an immunization site. […]” for “(p.i.).”
# as §3, with “All data are presented as means±SEM.” left out
structure (smiles),measurement,setting,value
"Br.CC(=O)OCC(=O)[C@@H]1CCCN1C(=O)[C@@H](NC(=O)[C@H](C)N)C(C)C [Ala-Val-Pro-Acyloxymethylketone, H-Ala-Val-Pro-CH2O—C(O)CH3*HBr]","in vivo DP IV-inhibition at tmax, i.v.",plasma DP IV activity,89%
same,"in vivo DP IV-inhibition at tmax, p.o.",plasma DP IV activity,86%
"Br.CC(C)[C@H](NC(=O)[C@H](C)N)C(=O)N1CCC[C@H]1C(=O)COC(=O)c1ccccc1 [Ala-Val-Pro-Benzoyl-methylketone, H-Ala-Val-Pro-CH2O—C(O)Ph*HBr]","in vivo DP IV-inhibition at tmax, i.v.",plasma DP IV activity,97%
same,"in vivo DP IV-inhibition at tmax, p.o.",plasma DP IV activity,76%
"NC(=O)CCC(N)C(=O)N1CCCC1 (stereo not shown) [Gln-Pyrr, glutaminyl pyrrolidine]",type of inhibition of porcine DP II,porcine DP II,non-competitive type inhibitors
same,inhibition of DP I enzyme activity,[1],no inhibition
"NC(=O)CCC(N)C(=O)N1CCSC1 (stereo not shown) [Gln-Thia, glutaminyl thiazolidine]",IC50,purified porcine DP IV,5.27 µM
CN(C)CCCN1c2ccccc2CCc2ccccc21 [Imipramine],severity of acute MBP-induced EAE,EAE,reduce the severity
CC[C@H](C)[C@H](NC(=O)[C@@H]1CCCN1C(=O)[C@@H](N)Cc1ccc(OP(=O)(O)O)cc1)C(=O)O [Tyr(P)-Pro-Ile] (H-[pY]-Pro-Ile-OH; N-terminus assumed),"in vivo DP IV-inhibition at tmax, p.o.",plasma DP IV activity,no inhibition
CC[C@H](C)[C@H](N)C(=O)N1CCSC1 [isoleucyl thiazolidine fumarate],"effect on clinical scores in the second peak (classical acute EAE), days 10-13",[2]; 1 mg dose i.p.,aggravate the clinical scores
same,Average score,[2]; 1 mg/kg i.p. daily,0.96*
same,Maximal score,[2]; 1 mg/kg i.p. daily,2.8
same,Onset of disease (1st day of score > 1),[2]; 1 mg/kg i.p. daily,10.3*
same,Sum of scores,[2]; 1 mg/kg i.p. daily,14.2*
same,"effect on disease activity after initiation of treatment, days 6-9",[2]; 3 mg and 10 mg dosages i.p.,induced a significant first peak of disease activity
same,Average score,[2]; 3 mg/kg i.p. daily,0.8
same,Maximal score,[2]; 3 mg/kg i.p. daily,3.0
same,Onset of disease (1st day of score > 1),[2]; 3 mg/kg i.p. daily,12.0
same,Sum of scores,[2]; 3 mg/kg i.p. daily,12.0
same,Average score,[2]; 10 mg/kg i.p. daily,0.72
same,Maximal score,[2]; 10 mg/kg i.p. daily,2.1
same,Onset of disease (1st day of score > 1),[2]; 10 mg/kg i.p. daily,12.1
same,Sum of scores,[2]; 10 mg/kg i.p. daily,10.8
same,Average score,[2]; 30 mg/kg i.p. daily,0.37**
same,Maximal score,[2]; 30 mg/kg i.p. daily,2.0*
same,Onset of disease (1st day of score > 1),[2]; 30 mg/kg i.p. daily,14.0***
same,Sum of scores,[2]; 30 mg/kg i.p. daily,5.6**
same,"effect on clinical scores in the second peak (classical acute EAE), days 10-13","[2]; 30 mg/kg i.p., fumarate",clearly improved the clinical course; also recorded: significant delaying and ameliorating effects
same,"effect on clinical score of EAE, days 11 and 12 p.i.","[3]; 1 mg dosage i.p. daily from day 1, female Lewis rats, fumarate",significant disease-aggravating effect; also recorded: disease-aggravating effects
same,"effect on clinical score of EAE, day 15 p.i.","[3]; 10 mg dose i.p. daily from day 1, female Lewis rats, fumarate",significantly reduced clinical score
same,shortening of the latency until onset of disease,"[3]; 10 mg/kg i.p. daily from day 1, female Lewis rats",about 1 day

# — patent US7368421B2, “Use of dipeptidyl peptidase IV inhibitors in the treatment of multiple sclerosis” (Probiodrug AG, priority 2001, dated 2008)
